In ChEMBL document CHEMBL3608289, “Miltirone Is a Dual Inhibitor of P-Glycoprotein and Cell Growth in Doxorubicin-Resistant HepG2 Cells” (J Nat Prod, 2015):
Calls of active or inactive are those of the source. No cut-off for these calls is given here.

Assays:
HepG2 [1] = assay: Induction of apoptosis in human HepG2 cells assessed as increase in PARP cleavage after 24 hrs by Western blotting; assay type: functional, cell-based
HepG2 [2] = assay: Induction of ROS generation in human HepG2 cells after 15 to 30 mins using CM-H2DCFDA by flow cytometry; assay type: functional, cell-based
HepG2 [3] = assay: Increase of SAPK/JNK phosphorylation in human HepG2 cells at 1.56 to 25 uM by Western blot analysis in presence of NAC; assay type: cell-based
HepG2 [4] = assay: Induction of oxidative stress in human doxorubicin-resistant HepG2 cells expressing p-gp assessed as decrease of GSSG level per gram of protein at 25 uM after 24 hrs using DTNB by enzymatic kinetic method relative to control; assay type: functional, cell-based
[5] = target: ATP-dependent translocase ABCB1 (Homo sapiens, UniProt P08183); assay: Inhibition of p-glycoprotein in human doxorubicin-resistant HepG2 cells assessed as reduction of doxorubicin efflux after 1 hr by flow cytometry; assay type: cell-based; conditions: hepg2, 1 h
ATP-dependent translocase ABCB1, sequence (P08183 whole entry): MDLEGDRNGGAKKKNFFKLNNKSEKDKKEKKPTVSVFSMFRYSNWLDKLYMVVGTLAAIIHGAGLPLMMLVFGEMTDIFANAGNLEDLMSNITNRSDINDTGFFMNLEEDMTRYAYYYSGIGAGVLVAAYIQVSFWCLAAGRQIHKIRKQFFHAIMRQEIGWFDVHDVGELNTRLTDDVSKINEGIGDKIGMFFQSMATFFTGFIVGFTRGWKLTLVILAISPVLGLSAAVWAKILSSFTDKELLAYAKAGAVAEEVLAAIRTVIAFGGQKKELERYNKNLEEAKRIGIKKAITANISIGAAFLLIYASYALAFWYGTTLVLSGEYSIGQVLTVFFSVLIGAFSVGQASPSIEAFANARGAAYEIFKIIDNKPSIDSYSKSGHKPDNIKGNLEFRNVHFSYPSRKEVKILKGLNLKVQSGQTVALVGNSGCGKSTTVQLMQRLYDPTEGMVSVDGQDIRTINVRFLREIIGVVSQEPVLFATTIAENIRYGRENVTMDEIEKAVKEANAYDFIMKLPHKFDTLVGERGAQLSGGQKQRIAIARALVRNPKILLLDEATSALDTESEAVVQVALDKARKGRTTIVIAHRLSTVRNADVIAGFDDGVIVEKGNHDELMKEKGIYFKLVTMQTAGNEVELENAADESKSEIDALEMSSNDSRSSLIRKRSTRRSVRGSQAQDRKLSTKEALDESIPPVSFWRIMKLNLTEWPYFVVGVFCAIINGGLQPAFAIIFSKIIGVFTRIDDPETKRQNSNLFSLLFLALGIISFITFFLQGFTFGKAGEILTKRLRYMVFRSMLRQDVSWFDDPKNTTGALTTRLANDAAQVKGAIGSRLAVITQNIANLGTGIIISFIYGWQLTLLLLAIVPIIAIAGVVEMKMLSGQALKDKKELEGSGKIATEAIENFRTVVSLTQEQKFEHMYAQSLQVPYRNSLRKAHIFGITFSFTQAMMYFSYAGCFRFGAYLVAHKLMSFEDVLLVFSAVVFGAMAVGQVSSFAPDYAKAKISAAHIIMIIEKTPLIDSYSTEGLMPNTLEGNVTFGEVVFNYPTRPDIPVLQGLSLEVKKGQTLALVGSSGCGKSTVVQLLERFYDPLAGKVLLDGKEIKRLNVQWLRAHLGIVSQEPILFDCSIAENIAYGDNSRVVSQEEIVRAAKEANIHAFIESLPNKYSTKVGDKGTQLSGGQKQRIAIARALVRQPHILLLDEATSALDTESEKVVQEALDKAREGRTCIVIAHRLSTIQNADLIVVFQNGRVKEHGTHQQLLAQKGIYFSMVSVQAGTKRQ

HepG2 [6] = assay: Induction of apoptosis in human HepG2 cells assessed as activation of caspase-3/8/9 at 12.5 after 24 hrs by Western blotting in presence of Z-VAD-FMK; assay type: functional, cell-based
HepG2 [7] = assay: Induction of ROS generation in human HepG2 cells at 25 uM after 15 to 30 mins using H2DCFH dye by confocal microscopy in presence of PEG-SOD; assay type: functional, cell-based
HepG2 [8] = assay: Cytotoxicity against human doxorubicin-resistant HepG2 cells expressing p-gp after 24 hrs by MTT assay; assay type: functional, cell-based; conditions: HepG2, 24 h
HepG2 [9] = assay: Cytotoxicity against human HepG2 cells after 24 hrs by MTT assay in presence of doxorubicin; assay type: functional, cell-based; conditions: HepG2, 24 h
[10] = target: T1, MAP kinase p38 (Homo sapiens) (UniProt O15264+Q15759+Q16539+P53778); assay: Inhibition of p38 MAPK phosphorylation in human doxorubicin-resistant HepG2 cells expressing p-gp at 1.56 to 25 uM by Western blot analysis in presence of NAC; assay type: cell-based
[11] = target: T1, MAP kinase p38 (Homo sapiens); assay: Inhibition of p38 MAPK phosphorylation in human HepG2 cells at 1.56 to 25 uM by Western blot analysis in presence of NAC; assay type: cell-based
HepG2 [12] = assay: Induction of apoptosis in human doxorubicin-resistant HepG2 cells expressing p-gp assessed as activation of caspase-3/8/9 at 12.5 after 24 hrs by Western blotting in presence of Z-LEHD-FMK; assay type: functional, cell-based
HepG2 [13] = assay: Effect on nonphosphorylated p38 MAPK level in human doxorubicin-resistant HepG2 cells expressing p-gp at 25 uM by Western blot analysis; assay type: ADME, cell-based; conditions: hepg2, 25 µM
HepG2 [14] = assay: Induction of necrosis in human doxorubicin-resistant HepG2 cells expressing p-gp assessed as LDH leakage at >50 uM after 24 hrs; assay type: functional, cell-based
HepG2 [15] = assay: Induction of apoptosis in human doxorubicin-resistant HepG2 cells expressing p-gp assessed as activation of caspase-3/8/9 at 12.5 after 24 hrs by Western blotting in presence of Z-VAD-FMK; assay type: functional, cell-based
HepG2 [16] = assay: Induction of ROS generation in human HepG2 cells at 25 uM after 15 to 30 mins using H2DCFH dye by confocal microscopy in presence of PEG-catalase; assay type: functional, cell-based
HepG2 [17] = assay: Induction of necrosis in human doxorubicin-resistant HepG2 cells expressing p-gp assessed as LDH leakage at 25 uM after 24 hrs; assay type: functional, cell-based
[18] = target: T1, MAP kinase p38 (Homo sapiens); assay: Inhibition of p38 MAPK phosphorylation in human HepG2 cells at 1.56 to 25 uM by Western blot analysis; assay type: cell-based
HepG2 [19] = assay: Competitive inhibition of p-glycoprotein in doxorubicin-resistant human HepG2 cells assessed as reduction of doxorubicin efflux after 1 hr by primary Lineweaver-Burk plot analysis; assay type: cell-based
[20] = target: Mitogen-activated protein kinase; ERK1/ERK2 (Homo sapiens) (UniProt P27361+P28482); assay: Inhibition of ERK1/2 phosphorylation in human HepG2 cells at 1.56 to 25 uM by Western blot analysis in presence of NAC; assay type: cell-based
Mitogen-activated protein kinase; ERK1/ERK2 (Homo sapiens), sequence (P27361 whole entry, looked up): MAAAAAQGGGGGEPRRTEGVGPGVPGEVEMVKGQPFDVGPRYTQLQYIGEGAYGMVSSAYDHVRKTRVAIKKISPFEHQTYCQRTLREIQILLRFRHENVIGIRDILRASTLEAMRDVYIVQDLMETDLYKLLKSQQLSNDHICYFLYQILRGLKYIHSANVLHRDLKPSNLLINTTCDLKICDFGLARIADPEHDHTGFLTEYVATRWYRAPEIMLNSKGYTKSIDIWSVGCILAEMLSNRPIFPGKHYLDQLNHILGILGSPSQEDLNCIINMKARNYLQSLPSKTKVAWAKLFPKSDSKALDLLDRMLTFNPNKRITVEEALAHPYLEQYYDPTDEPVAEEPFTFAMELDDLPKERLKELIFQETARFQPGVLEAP
Mitogen-activated protein kinase; ERK1/ERK2 (Homo sapiens), sequence (P28482 whole entry, looked up): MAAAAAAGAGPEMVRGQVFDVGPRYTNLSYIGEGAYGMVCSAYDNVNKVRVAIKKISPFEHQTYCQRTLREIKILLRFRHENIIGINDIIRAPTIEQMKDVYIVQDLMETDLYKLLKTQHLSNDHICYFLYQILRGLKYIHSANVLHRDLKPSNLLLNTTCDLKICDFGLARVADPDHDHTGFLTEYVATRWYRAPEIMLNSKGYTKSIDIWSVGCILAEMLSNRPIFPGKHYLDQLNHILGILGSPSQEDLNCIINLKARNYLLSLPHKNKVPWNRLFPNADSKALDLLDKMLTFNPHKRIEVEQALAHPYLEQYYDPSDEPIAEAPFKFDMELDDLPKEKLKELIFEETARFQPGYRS

HepG2 [21] = assay: Induction of oxidative stress in human doxorubicin-resistant HepG2 cells expressing p-gp assessed as decrease of GSH level per gram of protein at 6.25 to 25 uM after 24 hrs using DTNB by enzymatic kinetic method relative to control; assay type: functional, cell-based
[22] = Cytotoxicity against human PLC/PRF/5 cells after 24 hrs by MTT assay in presence of doxorubicin; assay type: functional, cell-based; conditions: PLC-PRF-5, 24 h
HepG2 [23] = assay: Induction of apoptosis in human HepG2 cells assessed as activation of caspase-3/8/9 at 12.5 after 24 hrs by Western blotting in presence of trolox; assay type: functional, cell-based
HepG2 [24] = assay: Induction of apoptosis in human HepG2 cells assessed as activation of caspase-3/8/9 after 24 hrs by Western blotting; assay type: functional, cell-based
HepG2 [25] = assay: Cytotoxicity against human doxorubicin-resistant HepG2 cells expressing p-gp assessed as combination index after 24 hrs by MTT assay in presence of doxorubicin; assay type: functional
[26] = target: T1, MAP kinase p38 (Homo sapiens); assay: Inhibition of p38 MAPK phosphorylation in human doxorubicin-resistant HepG2 cells expressing p-gp at 1.56 to 25 uM by Western blot analysis in presence of SB203580; assay type: cell-based
HepG2 [27] = assay: Induction of oxidative stress in human doxorubicin-resistant HepG2 cells expressing p-gp assessed as increase of GSH/GSSG ratio at 1.56 to 3.12 uM after 24 hrs using DTNB by enzymatic kinetic method; assay type: functional, cell-based
HepG2 [28] = assay: Induction of necrosis in human HepG2 cells assessed as LDH leakage at 25 uM after 24 hrs; assay type: functional, cell-based
HepG2 [29] = assay: Effect on nonphosphorylated p38 MAPK level in human HepG2 cells at 25 uM by Western blot analysis; assay type: ADME, cell-based; conditions: hepg2, 25 µM
HepG2 [30] = assay: Induction of necrosis in human HepG2 cells assessed as LDH leakage at >50 uM after 24 hrs; assay type: functional, cell-based
HepG2 [31] = assay: Induction of oxidative stress in human HepG2 cells assessed as decrease of GSSG level per gram of protein at 25 uM after 24 hrs using DTNB by enzymatic kinetic method relative to control; assay type: functional

inhibition (INH) [5]: Active
inhibition [10]: inactive
inhibition [11]: inactive
inhibition [18]: Active
inhibition [20]: inactive
inhibition [26]: inactive
SMILES: CC(C)C1=Cc2ccc3c(c2C(=O)C1=O)CCCC3(C)C [MILTIRONE]
Activity (HepG2 [1]): Active
Activity (HepG2 [2]): Dose-dependent effect
inhibition (HepG2 [3]): inactive
Activity (HepG2 [4]): inactive
Activity (HepG2 [6]): inactive
Activity (HepG2 [7]): inactive
EC50 (HepG2 [8]): 12 µM
EC50 (HepG2 [9]): 30.9 µM
Activity (HepG2 [12]): inactive
Activity (HepG2 [13]): Non-toxic
Activity (HepG2 [14]): Active
Activity (HepG2 [15]): inactive
Activity (HepG2 [16]): inactive
Activity (HepG2 [17]): inactive
inhibition (HepG2 [19]): Active
Activity (HepG2 [21]): Active
EC50 [22]: 17.4 µM
Activity (HepG2 [23]): inactive
Activity (HepG2 [24]): Active
CI (HepG2 [25]): 1.56
Activity (HepG2 [27]): inactive
Activity (HepG2 [28]): inactive
Activity (HepG2 [29]): Non-toxic
Activity (HepG2 [30]): Active
Activity (HepG2 [31]): 3.5 µmol
